Reference: patent US10729672B2 (Wyeth LLC, priority 2005, dated 2020)

How the values were obtained:
Format in all cases: cell-based
[1] = test system: BT474 [HER-2+ (amplified); ATCC HTB-20] cells; experiment: SRB cell survival / growth inhibition, BT474 cells
Procedure: (§1) The combination was tested in three breast cancer cell lines of differing genotypes.
(§2) Cells from each of these cell lines were incubated in the presence of a range of concentrations ([…]) for each drug. […] Compound dilutions were prepared in the same medium, at 2× final concentration, and 100 μl of the drug dilution was added to the cell-containing wells.
(§3) Serial dilutions of one compound were prepared in the presence of a fixed dose of a second compound. Alternatively, a checkerboard dilution series was employed. Cells were cultured for three days in the presence of the drugs. Untreated cells were included as controls. The percentage of surviving cells was determined using sulforhodamine B (SRB, Sigma-Aldrich, St Louis, Mo.), a protein binding dye. Cellular protein was precipitated in each well by the addition of 50 μl 50% cold trichloroacetic acid. After 1 hour, the plates were washed extensively in water and dried. SRB dye reagent (0.4% SRB in 1% acetic acid, 80 μl per well) was added and plates were kept at room temperature for ten minutes. […] Cell-associated dye was dissolved in 10 mM Tris (150 μl) and the absorbance was read at 540 nm in a microtiter plate reader. The concentration of compound that caused a fixed percentage inhibition of growth was determined by plotting cell survival (relative to untreated cells) against the compound dose.

[2] = test system: MDA-MB-361 [HER-2+ (non-amplified); adenocarcinoma; ATCC HTB 27] cells; experiment: SRB cell survival / growth inhibition, MDA-MB-361 cells; conditions: MDA-MB-361, lower levels of HER-2 without amplification
Procedure: as §1, §2, §3

[3] = test system: MCF-7 [HER-2−, EGFR−; adenocarcinoma; ATCC HTB22] cells; experiment: SRB cell survival / growth inhibition, MCF-7 cells; conditions: MCF-7, no HER-2
Procedure: as §1, §2, §3

**Q.** How did the “sensitivity of the cell line to the single agent” value (from here on “sensitivity of the cell line”) [1] turn out when `CCOc1cc2ncc(C#N)c(Nc3ccc(OCc4ccccn4)c(Cl)c3)c2cc1NC(=O)/C=C/CN(C)C` [HKI-272, (E)-N-{4-[3-chloro-4-(2-pyridinylmethoxy)anilino]-3-cyano-7-ethoxy-6-quinolinyl}-4-(dimethylamino)-2-butenamide] was run?
**A.** highly sensitive

**Q.** What about the “sensitivity of the cell line” value [2] of the same compound?
**A.** less sensitive

**Q.** What about the “sensitivity of the cell line” value [3] of the same compound?
**A.** resistant
